Source: PubChem BioAssay AID2423 (Broad Institute, 2010)
pEC50: −log10 of the molar value. Results filed as inconclusive are left out. Active and inactive are the calls of the source. No rule for the calls is given here.

What follows are compounds tested on C. albicans CaCi-8 + fluconazole, Alamar Blue growth, 48 h (assay: resistant C. albicans growth inhibition with fluconazole, dose response, CaCi-8 strain, Alamar Blue fluorescence (AID 2423)).

| SMILES | pEC50 | EC50 |
| --- | --- | --- |
| Oc1c(CN2CCN(c3ccc(F)cc3)CC2)cc(Cl)c2cccnc12 | 6.24 | – |
| CCc1ccccc1NC(=S)NNC(=O)c1ccccc1Cl | 6.08 | – |
| Nc1nc(-c2ccccc2)c(N=Nc2ccccc2Cl)s1 | 5.20 | – |
| O=C(NNC(=S)NC(=O)c1ccccc1[N+](=O)[O-])c1ccc(Cl)cc1Cl | 5.73 | – |
| CN(C)S(=O)(=O)Oc1cccc(C(=O)Nc2ccc(Cl)cc2)c1 | 5.53 | – |
| COc1ccc(CNCCNC(=O)c2ccco2)c(OC)c1OC | – | > 16 µM (inactive) |
| O=C(NC(=S)Nn1cnc2c(cnn2-c2ccccc2)c1=O)c1ccc(Cl)cc1 | 5.38 | – |
| CCn1c(C)nc2cc(C(=O)NNC(=S)Nc3ccc(Cl)cc3Cl)ccc21 | 6.00 | – |
| CCC(Oc1ccccc1)C(=O)Nc1ncc([N+](=O)[O-])s1 (configuration not stated) | – | > 16 µM (inactive) |
| Cc1ccc(-c2cc(-c3ccc(C)cc3)[n+](C)o2)cc1 | – | > 16 µM (inactive) |
| O=C1C2CCCN2C(c2ccccc2)N1c1ccccn1 (configuration not stated) | – | > 16 µM (inactive) |
| COc1ccc(OC)c(NC(=O)C(=O)/C=C(\O)c2cc(OC)ccc2OC)c1 | – | > 15 µM (inactive) |
| COCCN(C(=O)CSc1nnc(-c2cccc(C)c2)n1C)c1c(N)n(Cc2ccccc2)c(=O)[nH]c1=O | – | > 16 µM (inactive) |
| O=C(NC(=S)Nc1ccccc1O)c1ccc(Cl)cc1Cl | 6.20 | – |
| Cc1ccc(C)c(SCC(=O)Nc2nnc(-c3ccccc3)o2)c1 | 5.65 | – |
| C[C@H]1CCC/C=C/C2C[C@H](O)CC2[C@H](O)/C=C/C(=O)O1 (some centres not stated) | 5.69 | – |
| N#Cc1ccc(-c2nc3cc(Cl)ccc3c(=O)n2O)cc1 | 5.45 | – |
| Cc1nc2sc(C(c3cccc(F)c3)N3CCCC(C)C3)c(O)n2n1 (configuration not stated) | 6.10 | – |
| O=C(/C=C/c1ccco1)Oc1cc(Br)cc(/C=N/NC(=O)c2ccccc2O)c1 | 5.48 | – |
| CCOc1ccc2c(c1)OC(c1ccc(C)cc1)(C(F)(F)F)NC2=O (configuration not stated) | – | > 16 µM (inactive) |
| Cc1scc(C(=O)N/N=C/c2ccc([N+](=O)[O-])o2)c1C | 6.05 | – |
| O=C(NCc1cc([N+](=O)[O-])ccc1O)c1cccnc1Sc1ccccc1Cl | 6.83 | – |

| SMILES | pEC50 | EC50 |
| --- | --- | --- |
| CCOc1ccccc1NC(=O)c1cc(S(=O)(=O)N2CCC3(CC2)OCCO3)ccc1F | – | > 16 µM (inactive) |
| O=S(=O)(Nc1cccc2cccnc12)c1ccc(S(=O)(=O)N2CCCC2)cc1 | 5.25 | – |
| CCCC(=O)NC(c1ccc(Cl)cc1)c1ccc2cccnc2c1O (configuration not stated) | 6.27 | – |
| Nc1c2c(nc3sc4c(c13)CCCCC4)CCCCC2 | 5.26 | – |
| Oc1c(Br)cc(Br)cc1CNc1cccc2cccnc12 | – | > 15 µM (inactive) |
| CC1=CC2=C(OC1N(C)C)c1cccc3cccc(c13)C2=O (configuration not stated) | 5.03 | – |
| Cc1cc(C)n(-c2nc(SCCN(C)C)c3c4c(sc3n2)CCCC4)n1 | 5.19 | – |
| Cc1n[nH]c(C)c1CCNCc1ccc(OCC(O)CN2CCCCC2)cc1 (configuration not stated) | – | > 15 µM (inactive) |
| Oc1c(C(c2ccccn2)N2CCC(Cc3ccccc3)CC2)cc(Cl)c2cccnc12 (configuration not stated) | 5.73 | – |
| CC(c1ccc(Cl)cc1)n1c(-c2ccc3ccccc3n2)n[nH]c1=S (configuration not stated) | 5.28 | – |
| CCCCN(C)S(=O)(=O)c1ccc(C(=O)Nc2nnc(-c3ccco3)o2)cc1 | – | > 16 µM (inactive) |
| O=C(Oc1c(Cl)cc(Cl)c2cccnc12)c1ccco1 | 6.33 | – |
| O=C(NCC(=O)N(CC1CCCO1)C(C(=O)NC1CCCCC1)c1ccccc1)c1ccco1 (configuration not stated) | – | > 15 µM (inactive) |
| CCc1ccc(/C=C2\SC(=S)N(CCCC(=O)Nc3ccccc3C(=O)O)C2=O)cc1 | 6.52 | – |
| S=C(Nc1ccc(Cl)cc1)c1nc2ccccc2[nH]1 | 5.79 | – |
| CCOC(=O)c1ccccc1OCc1cc(/C=N/n2cnnc2)ccc1OC | – | > 15 µM (inactive) |
| Cc1ccccc1C(=O)O/N=C/c1c(N2CCOCC2)n(C)c2ccccc12 | 6.23 | – |
| O=C(CCc1ccccc1)NNC(=S)NC(=O)c1ccccc1 | 5.50 | – |
| COc1ccc(O)c(/C=N/NC(=O)c2ccc(N3CCCC3=O)cc2)c1 | – | > 16 µM (inactive) |
| O=[N+]([O-])c1ccc(S(=O)(=O)Nc2nc3ccccc3nc2Nc2ccccc2)cc1 | 5.84 | – |
| O=C1c2ccccc2C(=O)c2c1cccc2N1CCCC1 | – | > 16 µM (inactive) |
| CCN1/C(=C\c2ccc3cc(C)ccc3[n+]2CC)Sc2cc(C)c(C)cc21 | > 6.92 | – |

| SMILES | pEC50 | EC50 |
| --- | --- | --- |
| CC1(C)CC(=O)C2=C(C1)c1c(ccc3ccccc13)NC2c1cc([N+](=O)[O-])cc([N+](=O)[O-])c1O (configuration not stated) | – | > 15 µM (inactive) |
| Cc1nc(-n2[nH]c3c(c2=O)CCCC3)[nH]c(=O)c1Cc1ccccc1 | 6.27 | – |
| NC[C@@H]1O[C@H](C23CC4CC(CC(C4)C2)C3)Cc2c1ccc(O)c2O | 5.47 | – |
| O=C1c2ccccc2NC(c2ccc(-c3cccc(Cl)c3)o2)N1O (configuration not stated) | 5.70 | – |
| CCOc1cccc(-c2c(C(=O)N/N=C(\C)c3ccccn3)nnn2-c2nonc2N)c1 | 4.81 | – |
| O=c1[nH]c(=S)[nH]nc1Cc1ccc(Cl)c(Cl)c1 | 5.85 | – |
| CCN1/C(=C/C(C)=C/c2sc3ccccc3[n+]2CC)Sc2ccccc21 | > 6.92 | – |
| Brc1ccc(-c2nnc3sc(CN4CCN(c5ccccc5)CC4)cn23)cc1 | 6.54 | – |
| C/C(=N\NC(=O)CSCc1ccccc1Cl)c1cc(O)ccc1O | – | > 16 µM (inactive) |
| COc1ccc(-c2cc(=O)oc3cc(OC(=O)C4CCCCC4)c(Cl)cc23)cc1 | 5.95 | – |
| CCOc1ccccc1C(=O)N/N=C/c1ccoc1 | 5.66 | – |
| CC(C)(C)c1ccc(OCCCC(=O)NNC(=O)c2ccccc2O)cc1 | 5.59 | – |
| COCCn1c(=O)[nH]c(=O)c2cc(C(=O)c3cc(Cl)ccc3O)cnc21 | 5.89 | – |
| CCOc1cc(C=O)cc(N=Nc2cccc([N+](=O)[O-])c2)c1O | 6.19 | – |
| Nc1n[nH]c(-c2cccc([N+](=O)[O-])c2)n1 | – | > 15 µM (inactive) |
| COc1ccccc1NS(=O)(=O)c1cc(NC(=O)CCC(=O)c2cccs2)ccc1Cl | – | > 15 µM (inactive) |
| COc1ccnc(N2CCN(c3ccccc3)CC2)c1C#N | 6.07 | – |
| CCOc1ccc(CN(C(=O)c2oc3ccccc3c2C)C2CCS(=O)(=O)C2)cc1 (configuration not stated) | – | > 16 µM (inactive) |
| Cc1cc(C(C#N)c2ccccc2F)n2ncnc2n1 (configuration not stated) | 6.05 | – |
| O=C(NCc1ccco1)c1sc(=S)n2c1[nH]c(=O)c1ccccc12 | 6.67 | – |
| O=C(COc1ccc(Cl)cc1Cl)N1CCCN(C(=O)COc2ccc(Cl)cc2Cl)CC1 | 5.83 | – |
| COc1cc(C(=O)NC(=S)N(CCc2ccccc2)CCc2ccccc2)cc(OC)c1OC | 5.74 | – |

| SMILES | pEC50 | EC50 |
| --- | --- | --- |
| C/C(=N\NC(=O)c1cc2ccccc2cc1O)c1ccccn1 | 5.84 | – |
| O=C(c1ccc2c(c1)OCO2)N1CCC2(CC1)Oc1ccc(F)cc1C(=O)C21CC(c2cccnc2)=NO1 (configuration not stated) | 6.40 | – |
| CC1CCN(C(=O)Cn2c3ccccc3c3nc4n(c(=O)c32)CCS4)CC1 | – | > 16 µM (inactive) |
| Cc1ccc2nc(-c3ccc(NC(=S)NC4CC(C)(C)NC(C)(C)C4)cc3)sc2c1 | 5.72 | – |
| O=C(Oc1c(Cl)cc(Cl)c2cccnc12)c1cccs1 | 6.35 | – |
| OC(COc1ccc2c(c1)OCO2)CN1CCCC1 (configuration not stated) | – | > 15 µM (inactive) |
| O=c1ccc(N=Nc2ccccc2)ccc1O | 6.06 | – |
| CCCNC(=O)c1ccc2c(=O)c(O)c(-c3ccc(Cl)c([N+](=O)[O-])c3)[nH]c2c1 | 5.72 | – |
| CCc1ccc(OCC(=O)NNC(=S)NC(=O)C2CC2)c(Br)c1 | 5.92 | – |
| O=C(CSc1nc(-c2ccccc2)cs1)Nc1nccs1 | – | > 16 µM (inactive) |
| O=[N+]([O-])c1cc(CN2CCN(c3ccccc3)CC2)c(O)c2ncccc12 | 6.47 | – |
| CCN(CC)c1ccc(/C=N/NC(=O)c2cccc(S(=O)(=O)N3CCOCC3)c2)c(O)c1 | 6.29 | – |
| CCOC(=O)C(=Cc1cc(=O)c(OC)co1)C(=O)OCC | 6.48 | – |
| COc1cc(/C=C(\C#N)c2nc3ccccc3s2)cc([N+](=O)[O-])c1O | – | > 15 µM (inactive) |
| COC(=O)N/N=C/c1ccc(-c2cc(Cl)cc(Cl)c2)o1 | 6.03 | – |
| C=CCOC(=O)c1sc(NC(=O)c2ccco2)nc1C | 6.46 | – |
| Cc1ccc(C)c(NC(=S)NNC(=O)c2csc(C(C)C)c2)c1 | 5.92 | – |
| O=C(CSc1cccc[n+]1[O-])CSc1cccc[n+]1[O-] | 4.87 | – |
| CCSc1ccc2cc(OC)ccc2[n+]1CC | 5.33 | – |
| COc1ccc(N(CC(=O)Nc2ccccc2C(N)=O)S(=O)(=O)c2ccc(C)c([N+](=O)[O-])c2)cc1 | 6.50 | – |
| O=[N+]([O-])c1ccc(N/N=C/c2ccc(O)c(O)c2O)c(S(=O)(=O)N2CCOCC2)c1 | 5.08 | – |
| Cc1ccc(N=Cc2cc(Cc3ccccc3Cl)cc([N+](=O)[O-])c2O)c(O)c1 | – | > 15 µM (inactive) |

| SMILES | pEC50 | EC50 |
| --- | --- | --- |
| Cc1cc(C(=O)Nc2ccccc2C(=O)O)ccc1NC(=O)COc1cccc([N+](=O)[O-])c1 | 5.28 | – |
| CCn1c(SCC(=O)c2ccc(O)c(O)c2)nnc1-c1ccccc1OC | – | > 16 µM (inactive) |
| Cc1cc(=O)oc2cc(Oc3ccc([N+](=O)[O-])cc3[N+](=O)[O-])ccc12 | 6.19 | – |
| Cc1ccc2nc(-c3ccccc3Cl)cc(C(=O)Nc3cc(C)on3)c2c1 | 6.30 | – |
| Cc1onc(-c2ccccc2)c1C(=O)NC(=S)NNC(=O)c1cccnc1 | – | > 16 µM (inactive) |
| CCC(=O)NC(c1ccco1)c1cc(Cl)c2cccnc2c1O (configuration not stated) | 6.10 | – |
| O=c1[nH]c(-c2ccccn2)nc(C(F)(F)F)c1Br | 6.31 | – |
| O=C(N/N=C/c1cc(Br)cc(Cl)c1O)c1ccc2c(c1)OCO2 | 5.56 | – |
| O=C(O)c1cccc(CSc2nc(-c3ccccc3)cc(C(F)(F)F)n2)c1 | 5.17 | – |
| COc1cc(OC)cc(-c2nnc(Nc3nc4c(F)cccc4s3)o2)c1 | – | > 15 µM (inactive) |
| CCn1c(=O)c(C(=O)NCc2cccnc2)c(O)c2ccccc21 | 5.02 | – |
| Cc1nc2c(=O)oc3ccccc3c2n1-c1ccccc1 | 5.61 | – |
| O=C(N/N=C/c1sc(N2CCCCC2)nc1-c1cccs1)c1cccnc1 | 5.83 | – |
| CCOC(=O)c1ccc(NC(=O)Nc2ccn(C)n2)cc1 | 5.82 | – |
| Cc1ccc(-n2[nH]c(C)c(/C=N/NC(=O)c3ccc([N+](=O)[O-])cc3)c2=O)c(C)c1 | 5.45 | – |
| COc1ccc(-c2nnc(Nc3nc4c(OC)cccc4s3)o2)c(OC)c1 | 5.57 | – |
| COc1ccc(-n2c(-c3ccc(Br)cc3)c[n+]3c2SC(C)C3)cc1 (configuration not stated) | 5.17 | – |
| C=CCN(CC=C)Cc1c(O)ccc2c(=O)c(-c3ccccc3)coc12 | > 6.92 | – |
| COc1cc(OC)cc(N(C(=O)C2COc3ccccc3O2)C(C(=O)NC2CCCCC2)c2ccc(O)cc2)c1 (configuration not stated) | – | > 16 µM (inactive) |
